What was measured:
HiBiT-BRM = biological target: T1, HiBiT-BRM (Homo sapiens, UniProt P51531); assay: HiBiT-BRM cell-based degradation assay (Nano-Glo HiBiT Lytic Detection); details: HeLa cells expressing HiBiT-BRM, 24 h; for DC50: read-out: BRM HiBit Degradation IC50
T1 construct: expressed in transfected cells
Outline: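 Luminescence from HiBiT–LgBiT complementation in lysates of a stable HiBiT-BRM HeLa line measured after 24 h compound exposure. Degradation expressed as percent relative to DMSO-treated cells and cells given 2 μM of a known BRM/BRG1 degrader.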

HiBit-BRG1 = biological target: T2, HiBit-BRG1 (Homo sapiens, UniProt P51532); assay: HiBit-BRG1 cell-based degradation assay (Nano-Glo HiBiT Lytic Detection); details: HeLa cells expressing HiBit-BRG1 and LgBit, 24 h; for DC50: read-out: BRG1 HiBit Degradation IC50; for Dmax: read-out: BRG1 HiBit Degradation Maximum (%)
T2 construct: expressed in transfected cells
Outline: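 Seed 5000 HeLa HiBit-BRG1/LgBit cells per well; treat 24 h; equilibrate 15 min at room temperature; add Nano-Glo HiBiT lytic reagent, shake 10 min, read luminescence. Percent degradation is scaled between DMSO and 2 μM reference degrader wells.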

T2 sequence (P51532 whole entry): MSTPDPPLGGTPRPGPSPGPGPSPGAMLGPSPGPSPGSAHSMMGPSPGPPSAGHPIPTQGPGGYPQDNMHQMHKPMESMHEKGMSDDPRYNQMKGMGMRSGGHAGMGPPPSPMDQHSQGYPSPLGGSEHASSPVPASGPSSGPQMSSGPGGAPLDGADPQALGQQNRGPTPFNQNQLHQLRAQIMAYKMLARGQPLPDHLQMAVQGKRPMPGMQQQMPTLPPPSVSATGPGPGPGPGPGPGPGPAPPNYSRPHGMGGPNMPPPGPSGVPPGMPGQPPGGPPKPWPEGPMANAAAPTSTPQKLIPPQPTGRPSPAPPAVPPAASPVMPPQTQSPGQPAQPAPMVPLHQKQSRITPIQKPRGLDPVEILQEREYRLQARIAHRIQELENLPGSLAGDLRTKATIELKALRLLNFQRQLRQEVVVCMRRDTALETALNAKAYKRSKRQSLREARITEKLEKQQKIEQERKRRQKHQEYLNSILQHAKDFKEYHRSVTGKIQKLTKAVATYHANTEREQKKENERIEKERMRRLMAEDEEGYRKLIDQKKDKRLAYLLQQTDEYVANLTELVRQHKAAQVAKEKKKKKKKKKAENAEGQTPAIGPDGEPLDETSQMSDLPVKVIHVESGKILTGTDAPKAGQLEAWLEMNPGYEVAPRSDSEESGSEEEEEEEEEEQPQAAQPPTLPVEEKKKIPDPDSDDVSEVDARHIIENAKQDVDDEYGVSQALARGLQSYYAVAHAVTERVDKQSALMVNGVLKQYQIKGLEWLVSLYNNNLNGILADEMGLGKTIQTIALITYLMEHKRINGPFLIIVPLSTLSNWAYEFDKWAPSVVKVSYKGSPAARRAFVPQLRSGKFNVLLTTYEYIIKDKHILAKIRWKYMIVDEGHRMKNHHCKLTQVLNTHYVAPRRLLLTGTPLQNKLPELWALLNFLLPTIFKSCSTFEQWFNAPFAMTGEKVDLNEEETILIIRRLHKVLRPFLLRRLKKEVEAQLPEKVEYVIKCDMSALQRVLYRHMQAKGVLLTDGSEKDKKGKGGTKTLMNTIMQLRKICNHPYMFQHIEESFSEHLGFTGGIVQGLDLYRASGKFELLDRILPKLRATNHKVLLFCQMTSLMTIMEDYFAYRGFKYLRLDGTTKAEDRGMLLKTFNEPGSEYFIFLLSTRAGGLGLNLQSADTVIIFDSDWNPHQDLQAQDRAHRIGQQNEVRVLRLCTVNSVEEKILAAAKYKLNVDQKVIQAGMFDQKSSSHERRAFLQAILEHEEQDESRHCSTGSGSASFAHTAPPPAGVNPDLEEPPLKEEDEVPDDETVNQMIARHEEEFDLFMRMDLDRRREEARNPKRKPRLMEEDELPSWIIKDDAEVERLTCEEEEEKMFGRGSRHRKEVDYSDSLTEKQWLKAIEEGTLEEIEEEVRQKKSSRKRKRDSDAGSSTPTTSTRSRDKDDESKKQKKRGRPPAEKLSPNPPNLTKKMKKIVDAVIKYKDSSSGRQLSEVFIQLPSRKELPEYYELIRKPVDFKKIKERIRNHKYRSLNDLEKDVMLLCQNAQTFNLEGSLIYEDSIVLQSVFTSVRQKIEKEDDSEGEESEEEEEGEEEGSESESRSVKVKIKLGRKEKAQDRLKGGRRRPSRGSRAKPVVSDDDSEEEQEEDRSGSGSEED
T1 sequence (P51531 whole entry): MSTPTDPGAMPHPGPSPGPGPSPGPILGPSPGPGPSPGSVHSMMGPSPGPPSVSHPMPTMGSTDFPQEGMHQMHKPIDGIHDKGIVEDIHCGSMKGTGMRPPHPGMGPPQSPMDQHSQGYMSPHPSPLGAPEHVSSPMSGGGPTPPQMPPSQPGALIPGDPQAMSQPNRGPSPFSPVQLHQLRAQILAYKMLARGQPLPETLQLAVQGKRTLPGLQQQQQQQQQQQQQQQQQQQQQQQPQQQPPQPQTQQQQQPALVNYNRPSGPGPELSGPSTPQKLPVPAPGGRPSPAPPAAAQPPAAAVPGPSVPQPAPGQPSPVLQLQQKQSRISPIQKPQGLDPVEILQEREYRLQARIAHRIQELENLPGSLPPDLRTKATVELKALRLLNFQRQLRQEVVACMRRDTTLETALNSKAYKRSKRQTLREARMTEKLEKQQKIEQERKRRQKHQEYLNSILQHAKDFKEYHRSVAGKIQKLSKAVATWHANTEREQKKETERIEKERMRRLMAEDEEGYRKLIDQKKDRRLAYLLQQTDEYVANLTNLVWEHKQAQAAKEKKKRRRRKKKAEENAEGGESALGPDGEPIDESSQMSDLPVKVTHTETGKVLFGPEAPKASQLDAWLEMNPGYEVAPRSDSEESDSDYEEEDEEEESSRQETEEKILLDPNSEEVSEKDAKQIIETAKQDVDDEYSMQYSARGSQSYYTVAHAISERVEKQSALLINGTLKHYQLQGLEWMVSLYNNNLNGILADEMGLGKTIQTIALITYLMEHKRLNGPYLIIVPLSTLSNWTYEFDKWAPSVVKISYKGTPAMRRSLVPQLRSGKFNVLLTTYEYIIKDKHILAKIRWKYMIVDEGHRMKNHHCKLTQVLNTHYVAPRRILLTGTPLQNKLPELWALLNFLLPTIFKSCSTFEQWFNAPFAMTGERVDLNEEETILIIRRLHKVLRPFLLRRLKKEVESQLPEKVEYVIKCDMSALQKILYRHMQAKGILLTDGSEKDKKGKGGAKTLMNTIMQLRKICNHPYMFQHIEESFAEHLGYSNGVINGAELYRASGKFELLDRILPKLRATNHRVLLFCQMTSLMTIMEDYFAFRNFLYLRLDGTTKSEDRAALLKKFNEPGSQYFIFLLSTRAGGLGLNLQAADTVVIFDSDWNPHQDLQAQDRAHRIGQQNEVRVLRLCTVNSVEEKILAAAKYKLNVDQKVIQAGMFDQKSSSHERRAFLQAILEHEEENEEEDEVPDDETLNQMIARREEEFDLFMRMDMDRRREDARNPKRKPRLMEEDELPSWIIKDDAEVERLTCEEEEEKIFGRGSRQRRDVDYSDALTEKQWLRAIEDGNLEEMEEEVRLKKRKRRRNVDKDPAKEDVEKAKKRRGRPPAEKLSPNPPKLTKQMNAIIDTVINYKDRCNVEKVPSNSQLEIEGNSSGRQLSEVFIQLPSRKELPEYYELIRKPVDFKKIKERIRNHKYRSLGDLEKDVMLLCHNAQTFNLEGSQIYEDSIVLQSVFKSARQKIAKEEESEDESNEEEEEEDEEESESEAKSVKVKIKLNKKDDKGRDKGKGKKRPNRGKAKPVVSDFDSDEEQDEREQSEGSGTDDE

Row | DC50 (HiBiT-BRM) [nM] | DC50 (HiBit-BRG1) [nM] | Dmax (HiBit-BRG1) [%] | Compound | BRM HiBit Degradation Maximum (%) (HiBiT-BRM)
1 | > 100 | > 1000 | < 50 | Cc1ncsc1-c1ccc(CNC(=O)[C@@H]2C[C@@H](O)CN2C(=O)[C@@H](NC(=O)CCCCCCCCCCCCCCC(=O)N(C)Cc2ccc(CCOc3cc(-c4ccccc4O)nnc3N)cc2)C(C)(C)C)cc1 [Compound 223, N1-(4-(2-((3-amino-6-(2-hydroxyphenyl)pyridazin-4-yl)oxy)ethyl)benzyl)-N16-((S)-1-((2S,4R)-4-hydroxy-2-((4-(4-methylthiazol-5-yl)benzyl)carbamoyl)pyrrolidin-1-yl)-3,3-dimethyl-1-oxobutan-2-yl)-N1-methylhexadecanediamide] | A (“A” indicates maximum degradation ≥75%)
2 | > 1000 | > 1000 | < 50 | Cc1ncsc1-c1ccc(CNC(=O)[C@@H]2C[C@@H](O)CN2C(=O)[C@@H](NC(=O)CCN2CC(C3CN(C(=O)c4ccc(CCOc5cc(-c6ccccc6O)nnc5N)cc4)C3)C2)C(C)(C)C)cc1 [Compound 224, (2S,4R)-1-((S)-2-(3-(1′-(4-(2-((3-amino-6-(2-hydroxyphenyl)pyridazin-4-yl)oxy)ethyl)benzoyl)-[3,3′-biazetidin]-1-yl)propanamido)-3,3-dimethylbutanoyl)-4-hydroxy-N-(4-(4-methylthiazol-5-yl)benzyl)pyrrolidine-2-carboxamide] | C (“C” indicates maximum degradation <50%)
3 | > 100 | > 100 | > 75 | Cc1ncsc1-c1ccc([C@H](C)NC(=O)[C@@H]2C[C@@H](O)CN2C(=O)[C@@H](c2cc(OCCN3CC4CN(C(=O)c5ccc(CCOc6cc(-c7ccccc7O)nnc6N)cc5)CC43)no2)C(C)C)cc1 (stereo partly drawn) [Compound 225, (2S,4R)-1-((2R)-2-(3-(2-(3-(4-(2-((3-amino-6-(2-hydroxyphenyl)pyridazin-4-yl)oxy)ethyl)benzoyl)-3,6-diazabicyclo[3.2.0]heptan-6-yl)ethoxy)isoxazol-5-yl)-3-methylbutanoyl)-4-hydroxy-N-((S)-1-(4-(4-methylthiazol-5-yl)phenyl)ethyl)pyrrolidine-2-carboxamide] | A (“A” indicates maximum degradation ≥75%)
4 | > 10 | > 100 | > 75 | Cc1ncsc1-c1ccc([C@H](C)NC(=O)[C@@H]2C[C@@H](O)CN2C(=O)[C@@H](NC(=O)CCCCCCCCCCCCCCCC(=O)N(C)Cc2ccc(CCOc3cc(-c4ccccc4O)nnc3N)cc2)C(C)(C)C)cc1 [Compound 227, N1-(4-(2-((3-amino-6-(2-hydroxyphenyl)pyridazin-4-yl)oxy)ethyl)benzyl)-N17-((S)-1-((2S,4R)-4-hydroxy-2-(((S)-1-(4-(4-methylthiazol-5-yl)phenyl)ethyl)carbamoyl)pyrrolidin-1-yl)-3,3-dimethyl-1-oxobutan-2-yl)-N1-methylheptadecanediamide] | A (“A” indicates maximum degradation ≥75%)
5 | > 100 | > 100 | > 75 | Cc1ncsc1-c1ccc(CNC(=O)[C@@H]2C[C@@H](O)CN2C(=O)[C@@H](NC(=O)CCCCCCCCCCCCCCCC(=O)N(C)Cc2ccc(CCOc3cc(-c4ccccc4O)nnc3N)cc2)C(C)(C)C)cc1 [Compound 228, N1-(4-(2-((3-amino-6-(2-hydroxyphenyl)pyridazin-4-yl)oxy)ethyl)benzyl)-N17-((S)-1-((2S,4R)-4-hydroxy-2-((4-(4-methylthiazol-5-yl)benzyl)carbamoyl)pyrrolidin-1-yl)-3,3-dimethyl-1-oxobutan-2-yl)-N1-methylheptadecanediamide] | A (“A” indicates maximum degradation ≥75%)
6 | > 1000 | > 1000 | < 50 | Cc1ncsc1-c1ccc([C@H](C)NC(=O)[C@@H]2C[C@@H](O)CN2C(=O)[C@@H](c2cc(OCCNCCCCCCC(=O)NCc3ccc(CCOc4cc(-c5ccccc5O)nnc4N)cc3)no2)C(C)C)cc1 [Compound 229, (2S,4R)-1-((R)-2-(3-(2-((7-((4-(2-((3-amino-6-(2-hydroxyphenyl)pyridazin-4-yl)oxy)ethyl)benzyl)amino)-7-oxoheptyl)amino)ethoxy)isoxazol-5-yl)-3-methylbutanoyl)-4-hydroxy-N-((S)-1-(4-(4-methylthiazol-5-yl)phenyl)ethyl)pyrrolidine-2-carboxamide] | B (“B” indicates maximum degradation ≥50%)
7 | > 100 | > 1000 | > 75 | Cc1ncsc1-c1ccc([C@H](C)NC(=O)[C@@H]2C[C@@H](O)CN2C(=O)[C@@H](c2cc(OCCNCCC(=O)NCc3ccc(CCOc4cc(-c5ccccc5O)nnc4N)cc3)no2)C(C)C)cc1 [Compound 230, (2S,4R)-1-((R)-2-(3-(2-((3-((4-(2-((3-amino-6-(2-hydroxyphenyl)pyridazin-4-yl)oxy)ethyl)benzyl)amino)-3-oxopropyl)amino)ethoxy)isoxazol-5-yl)-3-methylbutanoyl)-4-hydroxy-N-((S)-1-(4-(4-methylthiazol-5-yl)phenyl)ethyl)pyrrolidine-2-carboxamide] | A (“A” indicates maximum degradation ≥75%)
8 | > 1000 | > 1000 | < 50 | Cc1ncsc1-c1ccc(CNC(=O)[C@@H]2C[C@@H](O)CN2C(=O)[C@@H](NC(=O)CCN2CC3CN(C(=O)c4ccc(CCOc5cc(-c6ccccc6O)nnc5N)cc4)CC32)C(C)(C)C)cc1 (stereo partly drawn) [Compound 231, (2S,4R)-1-((2S)-2-(3-(3-(4-(2-((3-amino-6-(2-hydroxyphenyl)pyridazin-4-yl)oxy)ethyl)benzoyl)-3,6-diazabicyclo[3.2.0]heptan-6-yl)propanamido)-3,3-dimethylbutanoyl)-4-hydroxy-N-(4-(4-methylthiazol-5-yl)benzyl)pyrrolidine-2-carboxamide] | C (“C” indicates maximum degradation <50%)

Row | Compound | DC50 (HiBiT-BRM) [nM] | DC50 (HiBit-BRG1) [nM] | Dmax (HiBit-BRG1) [%] | BRM HiBit Degradation Maximum (%) (HiBiT-BRM)
9 | Cc1ncsc1-c1ccc(CNC(=O)[C@@H]2C[C@@H](O)CN2C(=O)[C@@H](NC(=O)CCN2C[C@H]3CC[C@@H](C2)N3C(=O)c2ccc(CCOc3cc(-c4ccccc4O)nnc3N)cc2)C(C)(C)C)cc1 [Compound 226, (2S,4R)-1-((2S)-2-(3-(8-(4-(2-((3-amino-6-(2-hydroxyphenyl)pyridazin-4-yl)oxy)ethyl)benzoyl)-3,8-diazabicyclo[3.2.1]octan-3-yl)propanamido)-3,3-dimethylbutanoyl)-4-hydroxy-N-(4-(4-methylthiazol-5-yl)benzyl)pyrrolidine-2-carboxamide] | > 1000 | > 1000 | < 50 | B (“B” indicates maximum degradation ≥50%)
10 | Cc1ncsc1-c1ccc(CNC(=O)[C@@H]2C[C@@H](O)CN2C(=O)[C@@H](NC(=O)CCN2CCN(CCOc3cc(N4[C@@H]5CC[C@H]4CN(c4cc(-c6ccccc6O)nnc4N)C5)ccn3)CC2)C(C)(C)C)cc1 [Compound 232, (2S,4R)-1-((2S)-2-(3-(4-(2-((4-(3-(3-amino-6-(2-hydroxyphenyl)pyridazin-4-yl)-3,8-diazabicyclo[3.2.1]octan-8-yl)pyridin-2-yl)oxy)ethyl)piperazin-1-yl)propanamido)-3,3-dimethylbutanoyl)-4-hydroxy-N-(4-(4-methylthiazol-5-yl)benzyl)pyrrolidine-2-carboxamide] | > 100 | > 1000 | < 50 | A (“A” indicates maximum degradation ≥75%)
